The source made the active and inactive calls. No rule for the calls is given here.
Target: V. cholerae BH1651 luxOD47E, luciferase light induction, 6 h
Assay: Luciferase light induction in v cholerae bh1651, agonist dose response, confirmatory (AID 624254)

Compared with CCC(=O)N(CC)c1nc(-c2cc(OC)ccc2OC)cs1, CCc1cc(C(=O)c2ccccc2OC)c(N)s1 is 5-fold higher in AC50: 162 nM for the first, 802 nM for the second.

Going from Cc1cc2oc(=O)cc(-c3ccccc3)c2c(C)c1-c1ccc(C#N)cc1 to Cc1ccc(N2C(=O)C(CN(C)C)C2c2ccccc2)cc1 (configuration not stated), the AC50 falls from 3210 nM to 417 nM (7.7-fold).

First: Cc1noc(C)c1S(=O)(=O)N1CCCC(C(=O)NCCC2=CCCCC2)C1 (configuration not stated)
Second: CCOCCCN1CC(C(=O)NCCc2ccc(C)cc2)CC1=O (configuration not stated)
The AC50 of the first is 14-fold higher: 2640 nM for the first, 185 nM for the second.

Going from C[C@H](CO)N1C[C@H](C)[C@@H](CN(C)S(=O)(=O)c2ccccc2)Oc2c(NC(=O)Nc3ccc(F)cc3)cccc2C1=O to Cc1noc(C)c1NC(=O)Nc1cccc2c1O[C@@H](CN(C)S(=O)(=O)c1cccs1)[C@H](C)CN([C@H](C)CO)C2=O, the AC50 rises from 1910 nM to 11200 nM (5.9-fold).

Going from CC1CCCCC1NC(=O)COC(=O)c1ccccc1NC(=O)c1ccco1 (configuration not stated) to COC(=O)c1ccccc1NC(=O)Cn1cc2c(n1)CCC(C)C2 (configuration not stated), the AC50 falls from 20000 nM to 1480 nM (14-fold).

Going from COc1ccc(N2CCN(C(=O)COc3ccc4ccccc4c3)CC2)cc1 to C=C(C)COc1ccc(-c2ncncc2Oc2ccc(OC)cc2)c(O)c1, the AC50 falls from 35100 nM to 632 nM (56-fold).

Going from Cc1cc(Oc2ccc(C#N)cc2)nc(N2CCOCC2)n1 to CC(C)C(NC(=O)c1ccc(S(=O)(=O)N2CCOCC2)cc1)c1nc2ccccc2[nH]1 (configuration not stated), the AC50 rises from 208 nM to 15300 nM (74-fold).

Compared with COc1ccc(Cl)cc1NC(=O)COC(=O)c1ccc(Br)o1, COc1ccccc1NC(=O)c1nn(-c2ccc(Cl)cc2)ccc1=O is 24-fold lower in AC50: 8880 nM for the first, 377 nM for the second.

Going from COc1ccc(NC(=O)CCS(=O)(=O)c2ccc3c(c2)CCCN3C(C)=O)cc1Cl to COc1ccc(OCCOC(=O)CCS(=O)(=O)c2ccc(C)cc2)cc1, the AC50 rises from 113 nM to 208 nM (1.8-fold).

First: CCC(C)n1cnc2c(=O)oc3ccccc3c21 (configuration not stated)
Second: O=c1cc(CSc2ccccn2)c2ccccc2[nH]1
The AC50 of the first is 4.1-fold lower: 149 nM for the first, 615 nM for the second.

Compared with CC(C)COC(=O)CNc1n[nH]c(=S)[nH]c1=O, Cc1ccc(C(=O)OCC(=O)NCC(F)(F)F)cc1C is higher in AC50: < 23.5 nM for the first, 2410 nM for the second.

Compared with CC(=O)c1cccc(NC(=O)CSc2nc(=O)n(CCCN3CCOCC3)c3c2CCC3)c1, Cc1ccc(-n2nnnc2SCC(=O)NCC2CCCO2)cc1C (configuration not stated) is 5.4-fold lower in AC50: 180 nM for the first, 33.6 nM for the second.

Going from Cn1c(C(=O)NC2CCCCC2)cc2c(=O)n(C)c3ccccc3c21 to O=C(NC1CCCCC1)C(=O)c1c[nH]c2ccccc12, the AC50 falls from 27.3 nM to < 23.5 nM.

Going from CC(C)c1ccc(CNc2nnnn2C)cc1 to CCn1nnnc1NCc1ccc(SC)cc1, the AC50 rises from 101 nM to 188 nM (1.9-fold).

Compared with COc1ccc(N2CC(C(=O)Nc3cc(C(F)(F)F)ccc3N3CCCC3)CC2=O)c(OC)c1 (configuration not stated), C=Cn1c(C(=O)O)ccc1-c1ccc(OC)cc1 is lower in AC50: 1220 nM for the first, < 380 nM for the second.

First: Cc1cc(C)cc(NC(=O)Cn2ncn3c(cc4ccccc43)c2=O)c1
Second: Cc1ccc2nc(NCCc3ccccc3)c3nncn3c2c1
The AC50 of the first is 100-fold higher: 7050 nM for the first, 68.1 nM for the second.

Going from Cc1ccc2onc(CC(=O)O)c2c1 to O=[N+]([O-])c1ccc(N(CCO)CCO)c2c1no[n+]2[O-], the AC50 falls from 8360 nM to 1200 nM (7-fold).

Going from O=C(CNC(=O)c1cccc(S(=O)(=O)N2CCc3ccccc32)c1)Nc1ccc(F)c(F)c1F to O=C(Nc1nccs1)C(NS(=O)(=O)c1ccc(Br)s1)c1ccccc1 (configuration not stated), the AC50 rises from 516 nM to 15800 nM (31-fold).

Compared with O=C(Nc1nnc(-c2ccc3c(c2)OCCO3)o1)C1CCCCC1, NS(=O)(=O)c1ccc(NC(=O)NC2CCCCC2)cc1 is higher in AC50: < 23.5 nM for the first, 2290 nM for the second.

First: Cc1ccc(C)c(S(=O)(=O)N2CCN(C(=O)c3n[nH]c(=O)c4ccccc34)CC2)c1
Second: Cc1cc(=O)[nH]c(CN2CCC(c3ccccc3)CC2)n1
The AC50 of the first is 10-fold higher: 2960 nM for the first, 296 nM for the second.

Compared with CCOc1ccc(CCNC(=O)COC(=O)Cc2ccc(F)cc2)cc1OCC, COc1ccc(OCCOC(=O)c2cccs2)cc1 is 420-fold higher in AC50: 95.3 nM for the first, 40300 nM for the second.

Going from CCOC(=O)c1cnc(-n2nc(C)cc2C)nc1N(C)C to COc1cc(NC(=O)C2=C(C)OCCS2)c(Cl)cc1C(=O)NCCN(C)C, the AC50 rises from 67.6 nM to 463 nM (6.8-fold).

CCC(NC(=O)Nc1nccs1)(C(F)(F)F)C(F)(F)F gave an AC50 of 734 nM.

In the case of O=C(CN1CCN(c2ccc(F)cc2)CC1)Nc1cc(C(F)(F)F)ccc1Cl, the AC50 is reported as > 50000 nM (inactive).
Cc1cccc(NC(=O)c2c(O)c3ccccc3n(C)c2=O)c1 was tested, and the AC50 was > 50000 nM (inactive).
In the case of CSc1ccc(C#N)cc1NC(=O)c1ccc(Cl)cc1Cl, the AC50 is reported as > 50000 nM (inactive).
CC(NC(=O)CN1CCN(c2ccccc2F)CC1)c1ccccc1 (configuration not stated) was tested, and the AC50 was > 50000 nM (inactive).
In the case of CC(=O)Nc1ccc(N2CCCC2)cc1, the AC50 is reported as > 50000 nM (inactive).
With CCCCCCCCOC(=O)C(NC(=O)CCC(=O)Nc1ccc(S(N)(=O)=O)cc1)C(O)c1ccccc1 (configuration not stated) the AC50 was > 50000 nM (inactive).
For O=C(COC(=O)/C=C/c1ccccc1)NC1CCCC1, the AC50 was > 50000 nM (inactive).

Source: PubChem BioAssay AID624254 (Broad Institute, 2012)
